Data from paper PMC10938783, “A novel pan-PI3K inhibitor KTC1101 synergizes with anti-PD-1 therapy by targeting tumor suppression and immune activation” (Molecular Cancer, 2024).

Assays:
[1] = tested on: B16 tumor tissue gene expression; test: RNA-Seq (DEGs, GSEA, GSVA, CIBERSORT) of B16 tumors after KTC1101; assay type: in vivo, mouse; settings: 100 mg/kg for 3 days
Text: Total RNA was isolated using TRIzol reagent.
Cell-type Identification by Estimating Relative Subsets of RNA Transcripts (CIBERSORT) was used to perform a deconvolution analysis of the gene expression matrix based on the principle of linear […]. The CIBERSORT algorithm, with a reference to 511 mouse gene signatures, categorized immune cell populations into seven groups and calculated composition scores: B cells including memory, naive, and plasma cells; CD8^+ T cells including memory, naive, and activated cells; CD4^+ T cells including memory, naive, follicular, Th1, Th2, and Th17 cells; DCs including activated and immature cells; the rest being mast cells, Tregs, and monocytes.

[2] = tested on: S24 tumors; test: S24 syngeneic model in C57BL/6 mice; assay type: in vivo, mouse; settings: S24 in WT C57BL/6 mice, 100 mg/kg daily oral gavage
Procedure: To generate syngeneic mouse models, S24 and B16 cells were subcutaneously injected into the right lateral flank of 4- to 5-week-old male C57BL/6 mice. Tumors were allowed to grow to a volume of 100 mm^3, and then the animals were randomly divided into several groups. For S24 tumor-bearing mice, each group of five mice was treated with either vehicle or KTC1101 (100 mg/kg, PO). Tumor size was measured every 3 d or 4 d until the endpoint. For B16 tumor-bearing mice, each group of five mice was treated with either vehicle, KTC1101 (50 or 100 mg/kg, PO), anti-PD-1 antibody (250 μg per mouse, clone RPM1-14, Bio X cell, IP), or KTC1101 and anti-PD-1 antibody. Tumor size was monitored every other day, and the tumor was harvested at indicated time points for analysis of tumor-infiltrating lymphocytes. The tumor volume was calculated using the following formula: length × width × height/2.

[3] = Plasma metabolic stability assay; assay type: in vitro ADME; settings: mouse plasma, 37°C, 120 min incubation
Procedure: 495 µL of plasma was placed in a 96-well plate and pre-incubated at 37°C for 5 min.

[4] = target: PI3Kδ (PIK3CD/PIK3R1) (Homo sapiens, UniProt O00329); test: Adapta kinase assay; assay type: biochemical
Procedure: (§1) Procedures for the preparation of KTC1101 are described in supplemental data. To investigate the PI3K inhibitory efficacy of KTC1101, its impact on the kinase activity of PI3K isoforms was assessed using the Adapta kinase assay as previously reported. Initially, a dilution series of 2.5 µL KTC1101 or DMSO (control) was prepared and added to the respective wells of a 384-well plate. Subsequently, optimized 2.5 µL kinase solutions, including PIK3CA/PIK3R1, PIK3CB/PIK3R1, PIK3CG, and PIK3CD/PIK3R1, were introduced to each well. After adding the kinase solutions, 5 µL ATP and PIP2:PS lipid kinase substrate was introduced into each well and incubated for 1 h at room temperature. This step allows for the initiation and progression of the kinase reaction. Following the incubation, a detection solution (5 µL) was added to all the wells. This solution contained 30 mM EDTA to stop the kinase reaction, 6 nM Eu-labeled anti-ADP antibody, and a 3 × concentration of Alexa Fluor® 647 ADP tracer. The EDTA effectively terminates the kinase reaction, while the anti-ADP antibody and ADP tracer are crucial for the detection of ADP produced during the kinase reaction, which correlates with PI3K activity. The plate was then allowed to equilibrate for 30 min at room temperature, ensuring proper binding of the tracer and antibody to the generated ADP. Finally, the fluorescence of each well was measured using a Multi-Mode Microplate Reader (Spark, Tecan). To ascertain the selectivity of KTC1101 for PI3K isoforms and to rule out off-target effects, a kinase panel comprising 50 kinases was tested against KTC1101. This kinase profiling was conducted by Wuhan Heyan Biomedical Technology Co., Ltd.

[5] = target: PI3Kβ (PIK3CB/PIK3R1) (Homo sapiens, UniProt P42338); test: Adapta kinase assay; assay type: biochemical
Procedure: as §1

[6] = target: PI3Kα (PIK3CA/PIK3R1) (Homo sapiens, UniProt P42336); test: Adapta kinase assay; assay type: biochemical
Procedure: as §1

[7] = target: PI3Kγ (PIK3CG) (Homo sapiens, UniProt P48736); test: Adapta kinase assay; assay type: biochemical
Procedure: as §1

[8] = tested on: CCL5 and CXCL10; test: qRT-PCR and ELISA of chemokines in B16 cells; assay type: cell-based, mouse; settings: 48 h
Procedure: qRT-PCR was performed as previously described. RNA was isolated using Trizol and used to synthesize complementary DNA (cDNA) using a cDNA Synthesis Kit (GenStar), and RT-PCR was performed with aliquots of cDNA samples mixed with SYBR Green MasterMix (Applied Biosystems). Reactions were performed in triplicate.
We examined the secreted cytokines from B16 cells under both in vitro and in vivo conditions. For in vitro-cultured B16 cells, the cells were seeded into six-well plates and treated with either DMSO or a range of KTC1101 concentrations. After 48 h, the total cell count was determined, and the cell culture supernatant was collected for further analysis. For in vivo tumor tissues, the harvested tumor tissues were homogenized. Post-centrifugation, the supernatant was collected and used for protein quantification utilizing a BCA kit. The concentrations of murine CCL5 and CXCL10 in these supernatants were then quantified using specific ELISA kits, in accordance with the manufacturer's instructions.

Sequence of PI3Kδ (PIK3CD/PIK3R1) (O00329 whole entry, canonical isoform): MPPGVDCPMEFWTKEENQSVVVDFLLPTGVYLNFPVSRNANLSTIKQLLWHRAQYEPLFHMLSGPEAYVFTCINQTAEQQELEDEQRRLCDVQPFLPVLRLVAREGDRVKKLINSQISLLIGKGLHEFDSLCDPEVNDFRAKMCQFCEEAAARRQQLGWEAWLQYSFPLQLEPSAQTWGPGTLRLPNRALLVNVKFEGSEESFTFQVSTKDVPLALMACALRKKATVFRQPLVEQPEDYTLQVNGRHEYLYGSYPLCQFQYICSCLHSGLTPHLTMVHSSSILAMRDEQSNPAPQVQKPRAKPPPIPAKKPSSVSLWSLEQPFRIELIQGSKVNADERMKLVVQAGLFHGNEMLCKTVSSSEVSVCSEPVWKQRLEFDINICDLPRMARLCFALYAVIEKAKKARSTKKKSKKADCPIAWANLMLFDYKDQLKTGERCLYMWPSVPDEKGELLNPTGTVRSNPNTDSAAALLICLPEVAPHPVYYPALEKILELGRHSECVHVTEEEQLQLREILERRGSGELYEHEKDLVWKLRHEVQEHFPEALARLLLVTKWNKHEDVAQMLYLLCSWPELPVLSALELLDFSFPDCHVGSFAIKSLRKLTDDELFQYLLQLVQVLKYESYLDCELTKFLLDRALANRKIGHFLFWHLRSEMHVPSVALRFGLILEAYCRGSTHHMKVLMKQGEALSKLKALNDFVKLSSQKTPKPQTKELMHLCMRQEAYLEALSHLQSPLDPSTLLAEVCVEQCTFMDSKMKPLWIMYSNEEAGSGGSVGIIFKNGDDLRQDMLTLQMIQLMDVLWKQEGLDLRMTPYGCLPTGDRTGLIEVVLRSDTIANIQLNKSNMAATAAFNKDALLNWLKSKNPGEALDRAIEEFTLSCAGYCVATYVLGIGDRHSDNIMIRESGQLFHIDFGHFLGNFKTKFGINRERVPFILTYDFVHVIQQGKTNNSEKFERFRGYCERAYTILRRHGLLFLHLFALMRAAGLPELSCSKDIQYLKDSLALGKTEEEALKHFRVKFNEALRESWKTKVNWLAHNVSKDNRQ
Sequence of PI3Kδ (PIK3CD/PIK3R1) (P27986 whole entry partner, canonical isoform): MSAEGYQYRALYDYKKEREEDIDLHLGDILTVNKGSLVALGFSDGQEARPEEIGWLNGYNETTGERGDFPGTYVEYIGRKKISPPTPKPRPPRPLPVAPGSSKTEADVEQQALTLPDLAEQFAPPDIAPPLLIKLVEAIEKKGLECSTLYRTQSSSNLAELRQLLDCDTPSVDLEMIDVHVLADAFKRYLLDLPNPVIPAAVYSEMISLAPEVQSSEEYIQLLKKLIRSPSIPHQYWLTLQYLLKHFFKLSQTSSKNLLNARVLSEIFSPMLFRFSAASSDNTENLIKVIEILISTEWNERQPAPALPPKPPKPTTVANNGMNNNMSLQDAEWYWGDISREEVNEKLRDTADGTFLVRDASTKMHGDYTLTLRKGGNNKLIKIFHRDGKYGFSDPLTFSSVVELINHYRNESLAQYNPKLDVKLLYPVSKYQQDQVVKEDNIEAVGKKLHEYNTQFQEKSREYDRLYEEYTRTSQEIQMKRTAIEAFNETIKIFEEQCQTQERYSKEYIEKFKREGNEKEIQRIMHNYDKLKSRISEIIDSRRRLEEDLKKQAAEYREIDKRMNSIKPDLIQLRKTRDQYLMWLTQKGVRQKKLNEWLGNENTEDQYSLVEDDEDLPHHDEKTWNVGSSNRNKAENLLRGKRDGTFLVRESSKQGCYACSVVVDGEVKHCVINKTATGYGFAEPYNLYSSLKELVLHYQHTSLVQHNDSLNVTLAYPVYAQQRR
Sequence of PI3Kα (PIK3CA/PIK3R1) (P42336 whole entry): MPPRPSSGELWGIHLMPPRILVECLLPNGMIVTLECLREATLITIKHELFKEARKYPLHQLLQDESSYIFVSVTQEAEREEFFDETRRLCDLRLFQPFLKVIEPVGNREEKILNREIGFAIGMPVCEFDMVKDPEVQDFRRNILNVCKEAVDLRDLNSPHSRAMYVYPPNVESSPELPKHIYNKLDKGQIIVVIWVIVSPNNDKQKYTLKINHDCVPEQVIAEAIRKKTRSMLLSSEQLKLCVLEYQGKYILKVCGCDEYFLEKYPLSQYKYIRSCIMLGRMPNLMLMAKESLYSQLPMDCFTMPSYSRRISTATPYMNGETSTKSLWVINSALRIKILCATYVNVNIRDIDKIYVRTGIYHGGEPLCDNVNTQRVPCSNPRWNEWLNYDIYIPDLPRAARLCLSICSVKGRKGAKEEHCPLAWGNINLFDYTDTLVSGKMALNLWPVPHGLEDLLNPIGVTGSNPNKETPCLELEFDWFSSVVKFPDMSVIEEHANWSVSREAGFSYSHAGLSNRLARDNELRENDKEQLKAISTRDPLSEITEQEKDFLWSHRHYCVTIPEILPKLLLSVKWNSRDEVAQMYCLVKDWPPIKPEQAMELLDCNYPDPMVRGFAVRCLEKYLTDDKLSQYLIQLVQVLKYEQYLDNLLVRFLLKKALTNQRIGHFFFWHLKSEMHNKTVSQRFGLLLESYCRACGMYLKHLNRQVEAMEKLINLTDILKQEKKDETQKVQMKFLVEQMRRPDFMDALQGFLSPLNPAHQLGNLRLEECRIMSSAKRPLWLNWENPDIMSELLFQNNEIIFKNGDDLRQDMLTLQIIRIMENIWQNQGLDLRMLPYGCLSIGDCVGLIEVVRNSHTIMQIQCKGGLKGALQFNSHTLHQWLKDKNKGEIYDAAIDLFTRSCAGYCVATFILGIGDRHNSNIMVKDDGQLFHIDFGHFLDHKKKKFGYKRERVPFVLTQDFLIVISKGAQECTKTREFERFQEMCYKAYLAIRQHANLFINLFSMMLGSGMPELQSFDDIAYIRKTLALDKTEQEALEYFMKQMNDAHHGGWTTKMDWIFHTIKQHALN
Sequence of PI3Kα (PIK3CA/PIK3R1) (P27986 whole entry partner): as the sequence (P27986 whole entry partner, canonical isoform) above
Sequence of PI3Kβ (PIK3CB/PIK3R1) (P42338 whole entry): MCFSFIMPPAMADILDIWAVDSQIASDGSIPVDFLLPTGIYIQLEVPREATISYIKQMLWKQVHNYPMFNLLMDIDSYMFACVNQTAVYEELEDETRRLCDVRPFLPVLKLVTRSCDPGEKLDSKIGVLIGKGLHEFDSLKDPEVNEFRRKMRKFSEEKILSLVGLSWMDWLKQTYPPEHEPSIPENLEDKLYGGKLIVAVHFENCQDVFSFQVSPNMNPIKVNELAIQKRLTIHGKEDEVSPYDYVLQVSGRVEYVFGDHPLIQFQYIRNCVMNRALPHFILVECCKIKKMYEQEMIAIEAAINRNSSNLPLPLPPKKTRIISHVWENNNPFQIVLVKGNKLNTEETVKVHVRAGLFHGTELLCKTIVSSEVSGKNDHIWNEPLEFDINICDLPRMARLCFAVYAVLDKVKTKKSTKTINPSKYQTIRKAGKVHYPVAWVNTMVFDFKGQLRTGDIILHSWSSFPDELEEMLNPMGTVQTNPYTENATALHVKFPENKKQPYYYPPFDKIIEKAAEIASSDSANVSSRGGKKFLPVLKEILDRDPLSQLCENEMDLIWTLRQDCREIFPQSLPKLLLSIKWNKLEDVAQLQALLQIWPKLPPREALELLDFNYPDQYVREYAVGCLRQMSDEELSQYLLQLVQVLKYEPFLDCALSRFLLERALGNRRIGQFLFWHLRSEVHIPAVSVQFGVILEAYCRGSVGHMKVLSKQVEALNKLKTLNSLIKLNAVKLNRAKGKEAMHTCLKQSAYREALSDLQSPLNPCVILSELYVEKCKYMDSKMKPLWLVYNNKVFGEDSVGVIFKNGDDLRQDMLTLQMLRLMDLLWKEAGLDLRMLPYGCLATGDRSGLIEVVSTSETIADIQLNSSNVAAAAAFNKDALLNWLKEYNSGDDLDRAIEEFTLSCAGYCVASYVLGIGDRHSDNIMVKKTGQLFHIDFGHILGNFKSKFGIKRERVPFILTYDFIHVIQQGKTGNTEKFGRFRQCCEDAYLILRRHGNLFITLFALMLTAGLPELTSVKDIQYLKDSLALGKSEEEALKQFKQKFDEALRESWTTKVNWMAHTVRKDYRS
Sequence of PI3Kβ (PIK3CB/PIK3R1) (P27986 whole entry partner): as the sequence (P27986 whole entry partner, canonical isoform) above
Sequence of PI3Kγ (PIK3CG) (P48736 whole entry): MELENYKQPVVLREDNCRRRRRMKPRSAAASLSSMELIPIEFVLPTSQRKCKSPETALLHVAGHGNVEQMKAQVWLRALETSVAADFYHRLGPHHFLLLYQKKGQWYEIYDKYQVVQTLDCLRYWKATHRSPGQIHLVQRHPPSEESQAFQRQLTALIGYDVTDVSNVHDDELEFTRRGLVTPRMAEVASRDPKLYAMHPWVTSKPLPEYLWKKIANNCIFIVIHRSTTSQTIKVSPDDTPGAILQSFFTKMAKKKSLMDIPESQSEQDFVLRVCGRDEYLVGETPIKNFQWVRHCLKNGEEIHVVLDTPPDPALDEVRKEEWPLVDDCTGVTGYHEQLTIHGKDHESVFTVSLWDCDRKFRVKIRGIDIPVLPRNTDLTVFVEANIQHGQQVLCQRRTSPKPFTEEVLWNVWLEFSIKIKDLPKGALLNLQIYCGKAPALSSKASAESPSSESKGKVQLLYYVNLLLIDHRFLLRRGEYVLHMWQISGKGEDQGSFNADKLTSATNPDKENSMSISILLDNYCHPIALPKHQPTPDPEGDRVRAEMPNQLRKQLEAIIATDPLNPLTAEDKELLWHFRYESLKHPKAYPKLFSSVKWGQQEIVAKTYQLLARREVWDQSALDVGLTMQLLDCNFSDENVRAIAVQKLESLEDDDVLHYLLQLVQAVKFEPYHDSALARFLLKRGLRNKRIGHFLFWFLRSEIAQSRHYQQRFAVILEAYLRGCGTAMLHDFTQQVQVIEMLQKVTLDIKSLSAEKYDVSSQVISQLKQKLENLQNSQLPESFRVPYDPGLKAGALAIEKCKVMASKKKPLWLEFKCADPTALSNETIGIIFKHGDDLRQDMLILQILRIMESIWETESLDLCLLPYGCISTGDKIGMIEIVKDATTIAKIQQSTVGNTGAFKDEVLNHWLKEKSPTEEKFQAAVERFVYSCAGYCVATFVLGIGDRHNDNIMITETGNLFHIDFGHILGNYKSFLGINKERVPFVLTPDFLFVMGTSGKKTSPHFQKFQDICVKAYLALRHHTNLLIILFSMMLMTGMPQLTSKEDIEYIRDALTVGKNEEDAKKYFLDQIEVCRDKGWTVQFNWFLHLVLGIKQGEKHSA

COc1cc(N)cc2c1nc(C(F)F)n2-c1nc(N2CCCOCC2)nc(N2CCOCC2)n1 [KTC1101, 2-(difluoromethyl)-4-methoxy-1-(4-morpholino-6-(1,4-oxazepan-4-yl)-1,3,5-triazin-2-yl)-1H-benzo[d]imidazol-6-amine]
immune-related pathways (GSEA, GSVA) [1]: prominently upregulated
time until relapse was detected [2]: 18 days
half-life at 1 µM [3]: > 2 h
IC50 [4]: 1.22 nM
IC50 [5]: 36.3 nM
IC50 [6]: 3.72 nM
IC50 [7]: 17.1 nM
expression levels of CCL5 and CXCL10 [8]: significantly stimulated
